Laboratory results taken from PMC12828148, “Engineered cyclic peptide targeting ITGA5 disrupts tumor–stroma interaction to overcome desmoplasia and resistance in pancreatic ductal adenocarcinoma” (Acta Pharmaceutica Sinica. B, 2025).
Peptide text beside a SMILES is read from it.

Tests used:
[1] = test system: PANC-1 homospheroids / PANC-1 + PSC heterospheroids; assay: Gene expression in 3D PANC-1 homospheroids and PANC-1 + PSC heterospheroids (qPCR); assay type: cell-based, human; settings: treated Days 3 and 6, qPCR Day 7, n = 3
human integrin α5β1 = target: T1, human integrin α5β1 (Homo sapiens, UniProt P05556+P08648); assay: ITGA5 competition study (α5β1 binding to FN-coated plate, ELISA); settings: human recombinant α5β1 on FN-coated plate, increasing peptide concentrations
T1 construct: purchased RnD (printed for the alanine-replacement peptide array, not for the ELISA itself)
Experimental: To examine the affinity of the peptide to the target ITGA5, a 96 well MaxiSorp™ (Thermo Scientific) was coated with 100 μL FN (Advanced Biomatrix) at 1 μg/mL by overnight incubation at 4 °C. Next, the plate was washed with DPBS (Lonza) and blocked with 5% bovine serum albumin (BSA) in DPBS for at least 1 h at RT. In the meantime, mentioned concentrations of the peptides were mixed with 2 μg/mL human integrin α5β1 in DPBS with Mg^2+ and Ca^2+. The mixture was then set to rest for 30 min at RT. After blocking with 5% BSA, the plate was washed with DPBS. The mixture of integrin α5β1 and peptide was transferred to a well plate and incubated for 1 h at RT. Next, the plate was washed three times with PBS with 0.1% Tween 20 (PBS-T) and then mouse anti-human CD49e (RnD Systems) was added. After 1 h of incubation, plate was washed and the secondary peroxidase labeled antibody was added and incubated for 1 h at RT. After washing with PBS-T, the plate was quickly developed with 3,3′,5,5′-tetramethylbenzidine (TMB) (50 μL per well) and incubated for 5 min at RT in the dark. The reaction was stopped with 3 mol/L H2SO4 (50 μL per well) and the absorbance was measured at 450 nm with plate reader (Tecan).

hPSCs activated by TGF-β = assay: Gene expression in TGF-β-activated hPSCs (qPCR, RT2 profiler PCR array); assay type: cell-based, human
Experimental: Quantitative real-time PCR
To examine the effect of peptides on the gene expression of hPSC activation markers, cells were seeded into a 12 well plate at a seeding density of 50,000 cells/well. After overnight incubation, cells were starved for 24 h, then treated with human recombinant 5 ng/mL TGF-β (Peprotech, […]
After 24 h of the incubation, cells were lysed and total RNA was isolated using GenElute™ Mammalian Total RNA Miniprep Kit (Sigma–Aldrich) and the RNA concentration was measured using a NanoDrop® ND-1000 Spectrophotometer (Thermo Scientific, Waltham, USA). cDNA was synthesized with iScript™ cDNA Synthesis Kit (BioRad, Veenendaal, The Netherlands), and 10 ng cDNA was used for each PCR reaction. The real-time PCR primers (Table S1) were purchased from Sigma–Aldrich. Quantitative real time PCR was performed with 2× SensiMix SYBR and Fluoroscein Kit (Bioline GmbH, Luckenwalde, Germany) using a BioRad CFX384 Real-Time PCR detection system (BioRad). Gene expression levels were normalized to the expression of the house-keeping gene 18s rRNA. […]
The next day, the medium […]
was changed with 0% FBS Stellate Cell medium to starve hPSCs for 24 h. Subsequently, hPSCs were incubated with 5 ng/mL TGF-β1 and peptide for 48 h to examine the effect on protein expression of different markers such as α-SMA and collagen-1. Cells were lysed using 1× blue loading buffer containing 1× DTT reducing agent (Cell Signaling Technology) and homogenized using ultrasonication. Protein lysates were separated on a 4%–20% Tris-Glycine gel (Thermo Scientific) and then transferred onto a PVDF membrane (Thermo Scientific). […]

[2] = test system: PANC-1 + PSC and MIA PaCa-2 + PSC co-injection xenograft tumors
Experimental: Six-week-old male CB17 SCID mice (Janvier Labs, Le Genest-Saint-Isle, France) were subcutaneously injected with a 2:1 mixture of 4 × 10^6 human PSCs and 2 × 10^6 PANC-1 or MIA PaCa-2 cells. Tumor growth was assessed twice a week. Tumor-bearing mice (±100 mm^3) were treated with phosphate buffered saline (PBS), cyAV3.3, gemcitabine, or combination of gemcitabine and cyAV3.3 intraperitoneally (i.p). Animals were euthanized, tumors and other organs were harvested and embedded in Cryomatrix (Thermo Scientific) before being snap frozen in cold 2-methyl butane (Thermo Scientific) and stored at −80 °C until analyses. […]
Immunohistochemical staining of mouse tumors
Tumors were cut into 7 μm thick sections and mounted on glass slides using Cryotome FSE (Thermo Scientific), dried, and fixed in acetone for 15 min. Tumor sections were rehydrated in PBS for 10 min then incubated with primary antibody diluted in PBS for 1 hour at RT. Antibodies […]
Next, slides were washed 3 times with PBS before incubation with secondary fluorescence-labeled antibody diluted in PBS. After 30 min of incubation, slides were washed with PBS and shielded with a DAPI -containing mounting medium. Images were made using a Hamamatsu NanoZoomer Digital slide scanner 2.0HT (Hamamatsu Photonics, New Jersey, […]

C[C@@H]1NC(=O)[C@H](CCCNC(=N)N)NC(=O)[C@H](Cc2ccc(O)cc2)NC(=O)[C@H](Cc2ccc(O)cc2)NC(=O)[C@H](CCCNC(=N)N)NC(=O)CNC(=O)[C@H](CCCCN)NC(=O)[C@H](Cc2ccc(O)cc2)NC(=O)[C@H]([C@@H](C)O)NC1=O [cyAV3.3] (cyclo(ATYKGRYYR))
gene expression levels related to resistance, stemness and ECM in heterospheroids ([1]; PANC-1 + PSC heterospheroids): significantly reduced
gene expression in homospheroids ([1]; PANC-1 homospheroids): some genes including ABCG1, KRAS, MMP2, MMP9 were inhibited
blocking of FN-α5β1 interaction, cyclic versus linear (human integrin α5β1): blocked the interaction significantly stronger than AV3.3
gene expression of FN and ITGA5 (hPSCs activated by TGF-β; hPSCs activated by TGF-β, cyAV3.3 50 μmol/L, 24 h, qPCR): significantly inhibited the gene expression of FN and ITGA5
expression of 38 ECM and adhesion genes upregulated by TGF-β (heatmap) (hPSCs activated by TGF-β; hPSCs activated by TGF-β, cyAV3.3 50 μmol/L, RT2 Profiler PCR array): downregulated all the upregulated genes
TGF-β-induced gene expression of ACTA2 and COL-1A1 (hPSCs activated by TGF-β; hPSCs, 5 ng/mL TGF-β, 24 h, qPCR): inhibited both ACTA2 and COL-1A1 concentration dependently
reduction of tumor size / tumor growth ([2]; PANC-1 + PSC and MIA PaCa-2 + PSC co-injection xenografts, i.p. treatment, n = 4 per group per tumor type): ~30%
signs of toxicity (body mass, organ mass) ([2]; co-injection xenograft mice, i.p. treatment): did not show any obvious signs of toxicity
tumor blood vessel (CD31+) lumen diameter ([2]; immunofluorescence, co-injection xenograft tumors): larger lumen diameter compared to the control tumors
